Reference: patent publication US20230113262A1, “Peptide for cancer immunotherapy rupturing tumor-derived vesicle and use thereof” (RESEARCH & BUSINESS FOUNDATION SUNGKYUNKWAN UNIVERSITY, priority 2021, published 2023)

B1: biotin-labeled murine PD-1 protein (cat no. 71118, BPS Bioscience) (receptor, UniProt Q02242 25-167, looked up)
chain: LEVPNGPWRSLTFYPAWLTVSEGANATFTCSLSNWSEDLMLNWNRLSPSNQTEKQAAFCNGLSQPVQDARFQIIQLPNRHDFHMNILDTRRNDSGIYLCGAISLHPKAKIEESPGAELVVTERILETSTRYPSPSPKPEGRFQ
notes: also called biotin-labeled PD-1 protein

How the values were obtained:
[1] = system: fibroblast cell line NIH3T3; experiment: Cytotoxicity assay (MTT) in NIH3T3; type: cell-based, mouse; settings: NIH3T3 cells
Method: (§1) First, 10^4 cells of each cell line were seeded in a 96-well plate, and cultured for 24 hours. After culturing for 4 hours in a serum-free culture medium, the peptides at each concentration were injected into the wells and further incubated for 4 hours. After discarding a supernatant, 0.5 mg/ml of MTT-containing medium was treated and then left for 2 hours, formazan crystals in the cells were dissolved in each well using dimethyl sulfoxide. Then, cytotoxicity was analyzed by measuring absorbance at 570 nm using a microplate reader.

[2] = system: melanoma cell line B16F10; experiment: Cytotoxicity assay (MTT) in B16F10; type: cell-based, mouse; settings: B16F10 cells
Method: as §1

[3] = molecular target: T1, PD-L1 on tumor-derived exosomes (T-EXO) isolated from the plasma of B16F10 melanoma tumor-bearing mice (mouse, UniProt Q9EP73 19-290); experiment: ELISA: T-EXO captured on PD-L1 antibody-coated plate, biotin-labeled murine PD-1 (4 ug/ml) detected with streptavidin-HRP, OD 450 nm
T1 construct: whole, on cells; also called PD-L1^EXO; exosomal PD-L1
T1 sequence (Q9EP73 19-290, one chain of several): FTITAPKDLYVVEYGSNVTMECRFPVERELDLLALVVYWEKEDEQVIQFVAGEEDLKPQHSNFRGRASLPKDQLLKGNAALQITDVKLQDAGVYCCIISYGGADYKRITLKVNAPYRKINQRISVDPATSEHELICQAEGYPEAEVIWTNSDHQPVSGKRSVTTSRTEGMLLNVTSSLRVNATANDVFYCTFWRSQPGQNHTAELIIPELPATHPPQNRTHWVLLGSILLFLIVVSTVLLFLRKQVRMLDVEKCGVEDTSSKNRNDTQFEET
Method: After treating the plate for 2 hours, the plate was washed with PBS-T (PBS containing 0.05% Tween-20). […] Wells were washed with PBS-T three times, and treated with horseradish peroxidase-conjugated streptavidin (100 μl per well; R&D Systems) diluted in 0.5% BSA-containing PBS for 30 minutes. After washing with PBS-T, the plate was treated with tetramethylbenzidine (R&D Systems) and the reaction was stopped by adding 0.5 N H₂SO₄.

Molecule	cytotoxicity [1]	cytotoxicity ([1]; listed as AH peptide)	cytotoxicity [2]	cytotoxicity ([2]; listed as AH peptide)	binding result [3]
CC[C@@H](C)[C@@H](NC(=O)[C@@H](Cc1c[nH]c2ccccc12)NC(=O)[C@@H](CC(=O)O)NC(=O)[C@@H](Cc1c[nH]c2ccccc12)NC(=O)[C@H](NC(=O)[C@@H](CC(=O)O)NC(=O)[C@@H](CCCNC(=N)N)NC(=O)[C@@H](CC(C)C)NC(=O)[C@@H](Cc1c[nH]c2ccccc12)NC(=O)[C@@H](CO)NC(=O)CNC(=O)[C@H](N)CO)C(C)C)C(=O)N[C@H](CS)C(=O)N[C@@H](C(=O)N[C@@H](C(=O)N[C@H](CC(C)C)C(=O)N[C@@H](C(=O)N[C@H](CC(=O)O)C(=O)N[C@H](Cc1ccccc1)C(=O)N[C@H](CCCCN)C(=O)N[C@@H](C(=O)N[C@H](Cc1c[nH]c2ccccc12)C(=O)N[C@H](CC(C)C)C(=O)N[C@H](CCC(N)=O)C(=O)N[C@H](CO)C(=O)N[C@H](CCCCN)C(=O)N[C@H](CC(C)C)C(N)=O)[C@H](C)O)[C@H](C)O)C(C)C)[C@H](C)O [AH-D peptide]	neither the AH-D peptide nor the NH-D peptide has cytotoxicity	did not exhibit cytotoxicity	neither the AH-D peptide nor the NH-D peptide has cytotoxicity	did not exhibit cytotoxicity	
CC(C)C[C@@H](NC(=O)[C@@H](CCCCN)NC(=O)[C@@H](CO)NC(=O)[C@@H](CCC(N)=O)NC(=O)[C@@H](CC(C)C)NC(=O)[C@@H](Cc1c[nH]c2ccccc12)NC(=O)[C@H](NC(=O)[C@@H](CCCCN)NC(=O)[C@@H](CC(=O)O)NC(=O)[C@@H](CC(=O)O)NC(=O)[C@H](NC(=O)[C@@H](CC(C)C)NC(=O)[C@H](NC(=O)[C@H](NC(=O)[C@@H](CS)NC(=O)[C@@H](CCC(=O)O)NC(=O)[C@@H](Cc1c[nH]c2ccccc12)NC(=O)[C@@H](CC(=O)O)NC(=O)[C@@H](Cc1c[nH]c2ccccc12)NC(=O)[C@@H](CC(=O)O)NC(=O)[C@@H](CC(=O)O)NC(=O)[C@@H](CCCNC(=N)N)NC(=O)[C@@H](CC(C)C)NC(=O)[C@@H](Cc1c[nH]c2ccccc12)NC(=O)[C@@H](CO)NC(=O)CNC(=O)[C@H](N)CO)[C@H](C)O)C(C)C)[C@H](C)O)[C@H](C)O)C(N)=O [NH-D peptide, reference compound]	neither the AH-D peptide nor the NH-D peptide has cytotoxicity		neither the AH-D peptide nor the NH-D peptide has cytotoxicity		
B1					binds
